Test results from ChEMBL document CHEMBL5728011, “Bicyclic heterocyclic compound” (2020).

Target: Kynurenine/alpha-aminoadipate aminotransferase, mitochondrial (Homo sapiens, UniProt Q8N5Z0)
Test: Inhibitory Assay: To a reaction mixture (45 μL) containing 3.0 μmol/L kynurenine, 10 μmol/L pyridoxal phosphate, 2.0 ng/μL human recombinant KAT-II, and 150 mmol/L tris(hydroxymethyl)aminomethane-acetate buffer (pH 8.0) was added a 10% dimethyl sulfoxide solution (5 μL) of each test compound prepared, and the mixture was reacted at 37° C. for 1 hr. After the reaction, 50% trichloroacetic acid (5 μL) was added to terminate the reaction.The resultant kynurenic acid was quantified as follows by high performance liquid chromatography. An enzyme reaction mixture was separated by an octadecylsilane reversed-phase column (SC-50DS, Eicom Corporation; mobile phase: 250 mmol/L zinc acetate, 50 mmol/L sodium acetate, and 5.0% acetonitrile (pH 6.2)) incubated at 30° C., and kynurenic acid was quantified using a fluorescence detector (RF-20Axs, Shimadzu Corporation) at excitation wavelength 354 nm, detection wavelength 460 nm. The analytical curve was drawn every time by an external standard method. Each test compound was tested by dual measurement at each concentration. The kynurenic acid level in the presence of a test compound at each concentration was converted into % relative to kynurenic acid resulting from a reaction with an enzyme alone as 100%, and the obtained values were fitted to S-curve to determine IC50.

Chain of Kynurenine/alpha-aminoadipate aminotransferase, mitochondrial (Q8N5Z0 whole entry): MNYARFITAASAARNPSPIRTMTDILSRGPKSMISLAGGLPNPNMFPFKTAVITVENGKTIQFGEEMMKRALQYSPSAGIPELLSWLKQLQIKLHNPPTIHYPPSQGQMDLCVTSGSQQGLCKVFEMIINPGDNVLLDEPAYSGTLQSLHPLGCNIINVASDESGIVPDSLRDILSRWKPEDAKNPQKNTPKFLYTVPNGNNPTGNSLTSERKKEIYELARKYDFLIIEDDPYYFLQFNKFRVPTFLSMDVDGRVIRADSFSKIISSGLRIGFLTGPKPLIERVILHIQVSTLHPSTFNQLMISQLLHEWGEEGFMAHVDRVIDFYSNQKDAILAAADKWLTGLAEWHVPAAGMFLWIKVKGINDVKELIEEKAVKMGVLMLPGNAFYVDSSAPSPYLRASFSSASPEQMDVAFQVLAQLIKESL

IC50 [nM]	SMILES
64	COCCc1nc(N(C)C)c2sc(N3CCC[C@@H]3C(=O)NCc3ccccc3)nc2n1
47	O=C(NCc1ccccc1)[C@H]1CCCN1c1nc2ncnc(N3CCOCC3)c2s1
71	CC1(C)CN(c2ncnc3nc(N4CCC[C@@H]4C(=O)NCc4ccccc4)sc23)CCO1
50	Cc1nc(N(C)C)c2sc(N3CCC[C@@H]3C(=O)NCc3ccccc3)nc2n1
140	COCCOc1ncnc2nc(N3CCC[C@@H]3C(=O)NCc3ccccc3)sc12
82	COCc1nc(N(C)C)c2sc(N3CCC[C@@H]3C(=O)NCc3ccccc3)nc2n1
35	CON(C)c1ncnc2nc(N3CCC[C@@H]3C(=O)NCc3ccccc3)sc12
27	CN(C)c1nc(C(F)(F)F)nc2nc(N3CCC[C@@H]3C(=O)NCc3ccccc3)sc12
